Data on 6 molecules can be found in patent US10239861B2, “Therapeutic compounds and uses thereof” (GENENTECH, INC., priority 2015, dated 2019).

A word on the IC50: it is the point on the concentration scale where inhibition reaches its midpoint.

Molecules are shown by their SMILES.

The target of the experiment is PCAF bromodomain (His/Flag epitope tagged PCAF719-832) (Homo sapiens (Human), UniProt Q92831). The experiment is described as follows: PCAF AlphaLisa binding assay. To be noted: AlphaLisa; PCAF bromodomain 225 nM, biotinylated small molecule ligand 6 nM; read-out: PCAF IC50. The procedure: IC50 Measurements for Inhibitors Using PCAF AlphaLisa Binding Assay
PCAF bromodomain (His/Flag epitope tagged PCAF719-832), sequence (Q92831 719-832): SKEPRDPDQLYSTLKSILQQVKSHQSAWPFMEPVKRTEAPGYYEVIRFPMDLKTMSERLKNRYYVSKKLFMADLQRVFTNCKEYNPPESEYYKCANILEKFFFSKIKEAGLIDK
PCAF bromodomain binding and inhibition of the compounds disclosed herein was assessed by monitoring the engagement of biotinylated small molecule ligand (known to bind to the PCAF bromodomain) with the target using the AlphaLisa technology (Perkin-Elmer).
On the technique in general: In Alpha technology, singlet oxygen from a donor bead excites a nearby acceptor bead.

On to `Cc1cncc(CN2CCCC(Nc3cnn(C)c(=O)c3Cl)C2)c1` (stereo not drawn) [Example 53, 4-chloro-2-methyl-5-[[1-[(5-methyl-3-pyridyl)methyl]-3-piperidyl]amino]pyridazin-3-one], for which the half-inhibitory concentration (IC50) is 441 nM.

As to `Cc1nc(CN2CCCC(Nc3cnn(C)c(=O)c3Cl)C2)[nH]c1C` (stereo not drawn) [Example 54, 4-chloro-5-[[1-[(4,5-dimethyl-1H-imidazol-2-yl)methyl]-3-piperidyl]amino]-2-methyl-pyridazin-3-one], the IC50 stood at 1440 nM. Take `Cn1ncc(NC2CCCN(Cc3nc(-c4ccc(Cl)cc4)no3)C2)c(Cl)c1=O` (stereo not drawn) [Example 55, 4-chloro-5-[[1-[[3-(4-chlorophenyl)-1,2,4-oxadiazol-5-yl]methyl]-3-piperidyl]amino]-2-methyl-pyridazin-3-one]: the IC50 stood at 466 nM. The figure for `Cn1ncc(NC2CCCN(Cc3ccc(F)cc3)C2)c(Cl)c1=O` (stereo not drawn) [Example 56, 4-chloro-5-[[1-[(4-fluorophenyl)methyl]-3-piperidyl]amino]-2-methyl-pyridazin-3-one] is 139 nM; for `CN1CCCC[C@H](Nc2cnn(C)c(=O)c2Cl)C1` [Example 57, (S)-4-chloro-2-methyl-5-((1-methylazepan-3-yl)amino)pyridazin-3(2H)-one] it is 32.9 nM. On to `CN1CCCC[C@@H](Nc2cnn(C)c(=O)c2Cl)C1` [Example 58, (R)-4-chloro-2-methyl-5-((1-methylazepan-3-yl)amino)pyridazin-3(2H)-one], for which the half-maximal inhibitory concentration (IC50) turned out to be 169 nM.
